Results on twelve molecules are retold here after article PMC7531004, “Discovery of gramicidin A analogues with altered activities by multidimensional screening of a one-bead-one-compound library” (Nature Communications, 2020).

The nature of series [1]: H+/Na+ transport assay of bead-derived peptides (one-point).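 Note: relative to parent gramicidin A activity set to 1.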 The class given is biochemical. Further details: key: relative activity; mean of two control wells = 1.00. The settings on record: bead-derived peptide solution, EYPC/EYPG LUVs. The essentials: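 One-point screen: peptide + pyranine-loaded LUVs, 30 min RT with vortexing, 96-well. Read-out is fluorescence intensity scaled as 100 × (Ix – I0)/(Imax – I0). Imax from Triton X-100, I0 from untreated vesicles, and the mean of the two control wells is set to 1.00.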

The conditions of series [2]: cell viability/%. In a few lines:
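P388 cells at 1 × 10^4 cells/mL (final) were exposed to library peptides (stocks diluted 250-fold in RPMI1640/10% FBS) for 92 h at 37 °C, 5% CO2. Viable cells were counted by WST-1/1-methoxy PMS (4 h), absorbance 415 nm, and expressed as cell viability (%).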

In series [3] the test system is Streptococcus pyogenes SSI-9. The experiment in a line: Antibacterial activity assay of bead-derived peptides (three concentrations). The class given is cell-based. Further details: key: +++: inhibition by the 640-fold diluted peptide solution; ++: inhibition by the 160-fold diluted solution; +: inhibition by the 40-fold diluted solution; -: no inhibition. The note with it: S. pyogenes, bead-derived peptide solution, three concentrations. In a few lines:
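Library peptide stock applied undiluted, 4-fold and 16-fold diluted in DMSO to S. pyogenes SSI-9 (2 × 10^5 CFU) in cation-adjusted Mueller Hinton broth with 5% laked horse blood. After 18 h at 37 °C, growth judged by visible cell precipitation.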

Structures are written as SMILES. Where a SMILES comes first, the peptide text is derived from it. [ ]: non-standard residue; d: D form. The star is where a group is joined. NHCH2CH2OH = OCCN*; For = O=C*

`CC(C)C[C@@H](NC(=O)[C@H](C)NC(=O)[C@H](NC(=O)[C@H](C)NC(=O)CNC(=O)[C@@H](NC=O)C(C)C)C(C)C)C(=O)N[C@H](C(=O)N[C@@H](C(=O)N[C@@H](Cc1c[nH]c2ccccc12)C(=O)N[C@H](CC(C)C)C(=O)N[C@@H](Cc1c[nH]c2ccccc12)C(=O)N[C@H](CC(C)C)C(=O)N[C@@H](Cc1c[nH]c2ccccc12)C(=O)N[C@@H](C(=O)N[C@@H](Cc1c[nH]c2ccccc12)C(=O)NCCO)C(C)C)[C@H](C)O)C(C)C` [compound 6160] (For-VGA[dV]A[dL]V[dT]W[dL]W[dL]W[dV]W-NHCH2CH2OH): the “H+/Na+ transport activity normalized against the value of 1 (1.00)” value (from here on “H+/Na+ transport activity normalized”) in series [1] came to 1.07. The viability (usually a per cent measure of how many cells are alive, often set against a control) in series [2] was 70.3%. In series [3], the antibacterial activity entry is on record as “+”.
As for `CNC(=O)C[C@@H](NC(=O)[C@H](Cc1c[nH]c2ccccc12)NC(=O)[C@H](NC(=O)[C@H](Cc1c[nH]c2ccccc12)NC(=O)[C@H](NC(=O)[C@H](Cc1c[nH]c2ccccc12)NC(=O)[C@@H](CC(C)C)NC(=O)[C@@H](NC(=O)[C@@H](CC(C)C)NC(=O)[C@H](C)NC(=O)[C@@H](CC(C)C)NC(=O)[C@H](C)NC(=O)CNC(=O)[C@@H](NC=O)C(C)C)C(C)C)C(C)C)C(C)C)C(=O)N[C@@H](Cc1c[nH]c2ccccc12)C(=O)NCCO` [compound 6265] (For-VGA[dL]A[dL]V[dL]W[dV]W[dV]W[dD](NHMe)W-NHCH2CH2OH), the “H+/Na+ transport activity normalized” value in series [1] turned out to be 1.03. In series [2], this molecule displayed a viability of 79.9%. The antibacterial activity result in series [3] is on record as “-”.
The corresponding values for `CC(C)C[C@@H](NC(=O)[C@H](C)NC(=O)CNC(=O)[C@@H](NC=O)C(C)C)C(=O)N[C@@H](C)C(=O)N[C@@H](C(=O)N[C@H](C(=O)N[C@@H](C(=O)N[C@@H](Cc1c[nH]c2ccccc12)C(=O)N[C@H](CC(C)C)C(=O)N[C@@H](Cc1c[nH]c2ccccc12)C(=O)N[C@H](CC(C)C)C(=O)N[C@@H](Cc1c[nH]c2ccccc12)C(=O)N[C@@H](C(=O)N[C@@H](Cc1c[nH]c2ccccc12)C(=O)NCCO)C(C)C)C(C)C)C(C)C)C(C)C` [compound 6345] (For-VGA[dL]A[dV]V[dV]W[dL]W[dL]W[dV]W-NHCH2CH2OH) are 1.13, 57.3% and “++”.
The corresponding values for `CNC(=O)C[C@@H](NC(=O)[C@@H](NC(=O)[C@@H](CC(C)C)NC(=O)[C@H](C)NC(=O)[C@H](NC(=O)[C@H](C)NC(=O)CNC(=O)[C@@H](NC=O)C(C)C)C(C)C)C(C)C)C(=O)N[C@@H](Cc1c[nH]c2ccccc12)C(=O)N[C@H](CC(C)C)C(=O)N[C@@H](Cc1c[nH]c2ccccc12)C(=O)N[C@@H](C(=O)N[C@@H](Cc1c[nH]c2ccccc12)C(=O)N[C@H](CC(C)C)C(=O)N[C@@H](Cc1c[nH]c2ccccc12)C(=O)NCCO)C(C)C` [compound 6541] (For-VGA[dV]A[dL]V[dD](NHMe)W[dL]W[dV]W[dL]W-NHCH2CH2OH) are 1.14, 100% and “-”.
Regarding `CC(C)C[C@@H](NC(=O)[C@H](C)NC(=O)CNC(=O)[C@@H](NC=O)C(C)C)C(=O)N[C@@H](C)C(=O)N[C@@H](C(=O)N[C@H](C(=O)N[C@@H](C(=O)N[C@@H](Cc1c[nH]c2ccccc12)C(=O)N[C@H](CC(C)C)C(=O)N[C@@H](Cc1c[nH]c2ccccc12)C(=O)N[C@@H](C(=O)N[C@@H](Cc1c[nH]c2ccccc12)C(=O)N[C@@H](C(=O)N[C@@H](Cc1c[nH]c2ccccc12)C(=O)NCCO)C(C)C)C(C)C)C(C)C)C(C)C)[C@H](C)O` [compound 6549] (For-VGA[dL]A[dT]V[dV]W[dL]W[dV]W[dV]W-NHCH2CH2OH), the “H+/Na+ transport activity normalized” value in series [1] was found to be 1.07. For the same molecule, in series [2], the viability came out at 100%. The antibacterial activity entry in series [3] is “-”.
With `CC(C)C[C@@H](NC(=O)[C@H](Cc1c[nH]c2ccccc12)NC(=O)[C@H](NC(=O)[C@H](Cc1c[nH]c2ccccc12)NC(=O)[C@H](NC(=O)[C@H](Cc1c[nH]c2ccccc12)NC(=O)[C@H](NC(=O)[C@@H](NC(=O)[C@H](NC(=O)[C@H](C)NC(=O)[C@H](NC(=O)[C@H](C)NC(=O)CNC(=O)[C@@H](NC=O)C(C)C)[C@H](C)O)C(C)C)C(C)C)C(C)C)C(C)C)C(C)C)C(=O)N[C@@H](Cc1c[nH]c2ccccc12)C(=O)NCCO` [compound 6606] (For-VGA[dT]A[dV]V[dV]W[dV]W[dV]W[dL]W-NHCH2CH2OH), in series [1], the “H+/Na+ transport activity normalized” value is recorded as 1.03. The viability in series [2] came to 100%. Further, the antibacterial activity entry in series [3] was “-”.
The corresponding values for `CC(C)C[C@@H](NC(=O)[C@H](C)NC(=O)[C@H](NC(=O)[C@H](C)NC(=O)CNC(=O)[C@@H](NC=O)C(C)C)C(C)C)C(=O)N[C@H](C(=O)N[C@@H](C(=O)N[C@@H](Cc1c[nH]c2ccccc12)C(=O)N[C@H](CC(C)C)C(=O)N[C@@H](Cc1c[nH]c2ccccc12)C(=O)N[C@@H](C(=O)N[C@@H](Cc1c[nH]c2ccccc12)C(=O)N[C@H](CC(C)C)C(=O)N[C@@H](Cc1c[nH]c2ccccc12)C(=O)NCCO)C(C)C)[C@H](C)O)C(C)C` [compound 6842] (For-VGA[dV]A[dL]V[dT]W[dL]W[dV]W[dL]W-NHCH2CH2OH) are 1.14, 100% and “-”.
Take `CC(C)C[C@@H](NC(=O)[C@H](C)NC(=O)CNC(=O)[C@@H](NC=O)C(C)C)C(=O)N[C@@H](C)C(=O)N[C@@H](C(=O)N[C@H](C(=O)N[C@@H](C(=O)N[C@@H](Cc1c[nH]c2ccccc12)C(=O)N[C@H](CC(C)C)C(=O)N[C@@H](Cc1c[nH]c2ccccc12)C(=O)N[C@H](CC(C)C)C(=O)N[C@@H](Cc1c[nH]c2ccccc12)C(=O)N[C@@H](C(=O)N[C@@H](Cc1c[nH]c2ccccc12)C(=O)NCCO)[C@H](C)O)C(C)C)C(C)C)[C@H](C)O` [compound 6873] (For-VGA[dL]A[dT]V[dV]W[dL]W[dL]W[dT]W-NHCH2CH2OH): the “H+/Na+ transport activity normalized” value in series [1] is reported as 1.15. In addition, the viability in series [2] was 100%. Moreover, the antibacterial activity entry in series [3] is given as “-”.
On the same counts, the results for `CC(C)C[C@@H](NC(=O)[C@H](C)NC(=O)[C@H](NC(=O)[C@H](C)NC(=O)CNC(=O)[C@@H](NC=O)C(C)C)[C@H](C)O)C(=O)N[C@H](C(=O)N[C@@H](C(=O)N[C@@H](Cc1c[nH]c2ccccc12)C(=O)N[C@@H](C(=O)N[C@@H](Cc1c[nH]c2ccccc12)C(=O)N[C@H](CC(C)C)C(=O)N[C@@H](Cc1c[nH]c2ccccc12)C(=O)N[C@H](CC(C)C)C(=O)N[C@@H](Cc1c[nH]c2ccccc12)C(=O)NCCO)[C@H](C)O)C(C)C)C(C)C` [compound 6896] (For-VGA[dT]A[dL]V[dV]W[dT]W[dL]W[dL]W-NHCH2CH2OH) are 1.18, 100% and “-”.
The corresponding values for `CC(C)C[C@@H](NC(=O)[C@H](C)NC(=O)[C@H](NC(=O)[C@H](C)NC(=O)CNC(=O)[C@@H](NC=O)C(C)C)C(C)C)C(=O)N[C@H](C(=O)N[C@H](CC(C)C)C(=O)N[C@@H](Cc1c[nH]c2ccccc12)C(=O)N[C@@H](C(=O)N[C@@H](Cc1c[nH]c2ccccc12)C(=O)N[C@@H](C(=O)N[C@@H](Cc1c[nH]c2ccccc12)C(=O)N[C@@H](C(=O)N[C@@H](Cc1c[nH]c2ccccc12)C(=O)NCCO)[C@H](C)O)C(C)C)C(C)C)C(C)C` [compound 6959] (For-VGA[dV]A[dL]V[dL]W[dV]W[dV]W[dT]W-NHCH2CH2OH) are 1.06, 100% and “+”.
The corresponding values for `CC(C)C[C@@H](NC(=O)[C@H](C)NC(=O)CNC(=O)[C@@H](NC=O)C(C)C)C(=O)N[C@@H](C)C(=O)N[C@@H](C(=O)N[C@H](C(=O)N[C@@H](C(=O)N[C@@H](Cc1c[nH]c2ccccc12)C(=O)N[C@H](CC(C)C)C(=O)N[C@@H](Cc1c[nH]c2ccccc12)C(=O)N[C@@H](C(=O)N[C@@H](Cc1c[nH]c2ccccc12)C(=O)N[C@@H](C(=O)N[C@@H](Cc1c[nH]c2ccccc12)C(=O)NCCO)[C@H](C)O)C(C)C)C(C)C)C(C)C)C(C)C` [compound 7010] (For-VGA[dL]A[dV]V[dV]W[dL]W[dV]W[dT]W-NHCH2CH2OH) are 1.07, 100% and “+”.
For the molecule `CNC(=O)C[C@@H](NC(=O)[C@H](Cc1c[nH]c2ccccc12)NC(=O)[C@@H](CC(C)C)NC(=O)[C@H](Cc1c[nH]c2ccccc12)NC(=O)[C@@H](CC(C)C)NC(=O)[C@H](Cc1c[nH]c2ccccc12)NC(=O)[C@H](NC(=O)[C@@H](NC(=O)[C@H](NC(=O)[C@H](C)NC(=O)[C@H](NC(=O)[C@H](C)NC(=O)CNC(=O)[C@@H](NC=O)C(C)C)C(C)C)C(C)C)C(C)C)C(C)C)C(=O)N[C@@H](Cc1c[nH]c2ccccc12)C(=O)NCCO` [compound 7049] (For-VGA[dV]A[dV]V[dV]W[dL]W[dL]W[dD](NHMe)W-NHCH2CH2OH), the “H+/Na+ transport activity normalized” value in series [1] came out at 1.10. This molecule also had a viability in series [2] of 100%. Also, in series [3], the antibacterial activity entry is listed as “-”.
